# From PMC10442399, “Crystal structure and functional implications of cyclic di-pyrimidine-synthesizing cGAS/DncV-like nucleotidyltransferases” (Nature Communications, 2023)
# Entries after “also recorded” stand apart in the source; their conditions may differ. Read-outs that look alike come from different tables or passages of the source.
# How the values were obtained:
# EfCdnE = biological target: T1, EfCdnE (Enterococcus faecalis, UniProt P0DX98); assay: ITC analysis of nucleotide binding to wild-type EfCdnE
# T1 construct: Full-length gene fragments encoding ClCdnE from Cecembia lonarensis; made in house; host or cells: E. coli BL21 (DE3)
# Method: (§1) EfCdnE was chosen as the sample to evaluate the affinity of this class of enzyme to different nucleotides by isothermal titration calorimetry (ITC), using nano-ITC (TA Instruments). EfCdnE was dialyzed overnight against an assay buffer containing 20 mM Tris pH 8.0, 150 mM NaCl. The nucleotides to be tested (UTP, CTP, ATP and GTP, and their analogs) were each dissolved in the same buffer. Titration was carried out by 20 sequential injections of the nucleotide at a concentration of 250 μM at 3-min intervals to 50 μM EfCdnE, with a stirring speed of 300 rpm. The heat of dilution resulting from injecting the nucleotide into the assay buffer was subtracted. The final data were analyzed and curve-fitted with sequential two-site mode by using NanoAnalyze v3.12.5 (TA Instruments).
# EfCdnE^W281A = biological target: T2, EfCdnE^W281A (Enterococcus faecalis, UniProt P0DX98, W281A); assay: ITC analysis of nucleotide binding to EfCdnE^W281A mutant; settings: read-out: dissociation constant (KD)
# T2 construct: Full-length gene fragments encoding ClCdnE from Cecembia lonarensis; His6 (C); made in house; host or cells: E. coli BL21 (DE3)
# T2 sequence (P0DX98 1-299 W281A): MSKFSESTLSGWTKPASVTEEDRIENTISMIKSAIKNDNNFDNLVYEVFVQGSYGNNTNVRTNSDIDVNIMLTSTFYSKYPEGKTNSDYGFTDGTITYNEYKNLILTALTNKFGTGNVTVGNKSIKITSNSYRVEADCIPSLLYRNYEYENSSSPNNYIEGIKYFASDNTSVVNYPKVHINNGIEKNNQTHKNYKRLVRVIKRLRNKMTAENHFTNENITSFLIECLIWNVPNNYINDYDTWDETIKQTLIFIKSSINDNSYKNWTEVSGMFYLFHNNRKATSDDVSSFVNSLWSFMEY
# Description: (§2) To validate the importance of this motif, we changed Arg279 and Trp281 of EfCdnE to a smaller alanine residue and assessed the substrate specificity and product synthesis of both wild-type and mutant EfCdnE by ITC and LC-MS/MS. […] Based on sequence conservation and structural similarity, it is proposed that the cyclic di-pyrimidine-synthesizing CdnE proteins, including ClCdnE, EfCdnE, and LpCdnE, form smaller donor pockets that act as molecular gauges to recognize and retain the binding of pyrimidine nucleotides but weaken or exclude the binding to purine nucleotides (Fig. 6F). In combination with the conserved Asn residue in the acceptor pocket, the substrate specificity for double pyrimidine was achieved (Fig. 6F).
# as §1, with “Titration was carried out by 20 sequential injections of the nucleotide at a concentration of 250 μM at 3-min intervals to 50 μM EfCdnE, with a stirring speed of 300 rpm. The heat of dilution resulting from injecting the nucleotide into the assay buffer was subtracted.” left out
# EfCdnE^R279A = biological target: T3, EfCdnE^R279A (Enterococcus faecalis, UniProt P0DX98, R279A); assay: ITC analysis of nucleotide binding to EfCdnE^R279A mutant
# T3 construct: Full-length gene fragments encoding ClCdnE from Cecembia lonarensis; His6 (C); made in house; host or cells: E. coli BL21 (DE3)
# Description: as §2
# as §1, with “Titration was carried out by 20 sequential injections of the nucleotide at a concentration of 250 μM at 3-min intervals to 50 μM EfCdnE, with a stirring speed of 300 rpm. The heat of dilution resulting from injecting the nucleotide into the assay buffer was subtracted.” left out
# [1] = dissociation constant (KD), second of two binding sites, ITC, wild-type EfCdnE, sequential two-site fit, second-named site (acceptor pocket for UMPnPP)
# T1 sequence (P0DX98 whole entry, the tested form may be a part): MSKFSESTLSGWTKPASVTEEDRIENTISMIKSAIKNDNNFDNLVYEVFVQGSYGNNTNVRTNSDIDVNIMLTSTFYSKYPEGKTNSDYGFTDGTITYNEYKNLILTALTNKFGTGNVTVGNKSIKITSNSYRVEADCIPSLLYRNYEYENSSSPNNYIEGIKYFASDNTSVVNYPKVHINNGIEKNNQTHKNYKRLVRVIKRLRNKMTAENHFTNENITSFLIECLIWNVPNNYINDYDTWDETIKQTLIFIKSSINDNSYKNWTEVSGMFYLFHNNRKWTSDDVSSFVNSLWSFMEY
# T3 sequence (P0DX98 whole entry R279A, the tested form may be a part): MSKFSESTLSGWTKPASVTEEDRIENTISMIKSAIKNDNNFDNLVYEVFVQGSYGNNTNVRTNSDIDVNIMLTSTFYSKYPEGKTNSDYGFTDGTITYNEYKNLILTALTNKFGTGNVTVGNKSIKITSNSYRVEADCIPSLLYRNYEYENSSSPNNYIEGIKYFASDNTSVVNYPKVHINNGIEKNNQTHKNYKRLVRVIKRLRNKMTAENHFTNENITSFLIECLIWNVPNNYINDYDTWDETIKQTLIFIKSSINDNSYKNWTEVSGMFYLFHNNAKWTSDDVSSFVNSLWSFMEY
SMILES,"binding to EfCdnE (in words) (EfCdnE; ITC, wild-type EfCdnE)",Kd (EfCdnE^W281A),"binding affinity, dissociation constant (in words) (EfCdnE^R279A)",Kd (EfCdnE),"binding to EfCdnE pre-incubated with UMPnPP (in words) (EfCdnE; ITC, EfCdnE pre-incubated with UMPnPP)",Kd (EfCdnE; [1])
Nc1nc2c(ncn2[C@@H]2O[C@H](COP(=O)(O)CP(=O)(O)OP(=O)(O)O)[C@@H](O)[C@H]2O)c(=O)[nH]1 [GMPcPP],No binding; also recorded: too weak to be detected,65000 nM,–,–,–,–
Nc1ncnc2c1ncn2[C@@H]1O[C@H](COP(=O)(O)OP(=O)(O)OP(=O)(O)O)[C@@H](O)[C@H]1O [ATP],did not,–,near micromolar,–,–,–
Nc1nc2c(ncn2[C@@H]2O[C@H](COP(=O)(O)OP(=O)(O)OP(=O)(O)O)[C@@H](O)[C@H]2O)c(=O)[nH]1 [GTP],did not,–,near micromolar,–,–,–
Nc1ncnc2c1ncn2[C@@H]1O[C@H](COP(=O)(O)CP(=O)(O)OP(=O)(O)O)[C@@H](O)[C@H]1O [AMPcPP],No binding; also recorded: too weak to be detected,35000 nM,–,–,–,–
Nc1ccn([C@@H]2O[C@H](COP(=O)(O)CP(=O)(O)OP(=O)(O)O)[C@@H](O)[C@H]2O)c(=O)n1 [CMPcPP],–,–,–,18.7 nM,no binding; also recorded: did not bind,1270 nM
O=c1ccn([C@@H]2O[C@H](COP(=O)(O)NP(=O)(O)OP(=O)(O)O)[C@@H](O)[C@H]2O)c(=O)[nH]1 [UMPnPP],–,–,–,14.7 nM,–,980 nM
